According to patent US8969376B2, “Pyrazolopyrimidine compounds and their use as PDE10 inhibitors” (Mitsubishi Tanabe Pharma Corporation, priority 2010, dated 2015):

What was measured:
Human PDE10A (hPDE10A) = Human PDE10A (hPDE10A) (Homo sapiens (Human), UniProt Q9Y233); assay: Measurement of PDE10 inhibitory activity (PDE assay, radiolabeled nucleotide method), human enzyme; assay type: biochemical; conditions: PDE10A of human (PDE10A2 expressed in COS-7 cells); substrate 3H-cAMP, final 7 nM; room temperature 90 min
Human PDE10A (hPDE10A), sequence (Q9Y233 267-1055): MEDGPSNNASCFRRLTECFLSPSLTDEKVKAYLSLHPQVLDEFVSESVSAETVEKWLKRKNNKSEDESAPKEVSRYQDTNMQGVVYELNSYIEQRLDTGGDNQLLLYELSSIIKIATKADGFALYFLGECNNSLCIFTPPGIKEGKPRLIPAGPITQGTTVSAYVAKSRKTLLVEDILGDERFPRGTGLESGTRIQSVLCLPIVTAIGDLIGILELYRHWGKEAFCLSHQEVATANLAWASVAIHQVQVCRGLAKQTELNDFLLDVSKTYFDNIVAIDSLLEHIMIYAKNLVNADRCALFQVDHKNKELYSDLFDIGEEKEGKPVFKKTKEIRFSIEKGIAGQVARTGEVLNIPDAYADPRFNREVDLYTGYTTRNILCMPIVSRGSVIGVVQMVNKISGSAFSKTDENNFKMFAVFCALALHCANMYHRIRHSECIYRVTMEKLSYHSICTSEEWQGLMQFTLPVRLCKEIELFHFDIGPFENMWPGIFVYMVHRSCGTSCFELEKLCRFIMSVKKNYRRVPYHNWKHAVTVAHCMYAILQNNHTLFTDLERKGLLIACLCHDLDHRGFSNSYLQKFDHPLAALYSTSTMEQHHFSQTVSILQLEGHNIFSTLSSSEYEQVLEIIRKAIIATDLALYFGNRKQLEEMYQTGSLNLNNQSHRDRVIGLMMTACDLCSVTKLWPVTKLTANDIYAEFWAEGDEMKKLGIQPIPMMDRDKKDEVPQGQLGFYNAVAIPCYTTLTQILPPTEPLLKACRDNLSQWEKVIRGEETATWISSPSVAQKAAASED
Description: (§1) (1) Bovine PDE10A (bPDE10A) was isolated and prepared from bovine corpus striatum, according to the methods described in the reference Fujishige et al., Eur. J. Biochem., vol. 266, pp. 1118-1127, 1999. Human PDE10A (hPDE10A) was isolated from COS-7 cells transfected with plasmids coding for human PDE10A2, according to the methods described in the reference Kotera et al., Biochem. Biophys. Res. Commun., vol. 261, pp. 551-557, 1999. The enzyme solutions obtained were used for a PDE assay.
(§2) The PDE assay was performed according to a modified method referred to a report of Kotera et al. (Kotera et al., Biochem. Pharmacol., vol. 60, pp. 1333-1341, 2000), by the radiolabeled nucleotide method.
(§3) Specifically, the measurements of the inhibitory activities were carried out in the following method.
(Method) The test compounds were dissolved in dimethyl sulfoxide (DMSO). 2 μL of the compound solution was added to 96 well plate, and the reaction mixture (20 μL of PDE enzyme solution in 50 mM Tris-HCl, pH 8.0, 40 μL of the assay buffer (50 mM Tris-HCl, pH 8.0, 2 mM MgCl2, 0.07% 2-mercaptoethanol, and 0.825 mg/mL bovine serum albumin), and 20 μL of 1 mg/mL snake venom in 50 mM Tris-HCl, pH8.0) was added to the 96 well plate. The enzyme reaction was started by adding and mixing with substrate solution of 20 μL containing approximate 35 nM ^3H-cAMP in 50 mM Tris-HCl, pH 8.0. The final concentration of cAMP in the reaction mixtures was 7 nM. The reaction mixtures were incubated at room temperature for 90 min. After incubation, the reaction was stopped by adding 100 μL of methanol and resultant solutions were applied to filter plate containing Dowex (1×8 200-400) and centrifuged. 50 μL of the eluate together with wash eluate with additional 100 μL methanol was collected in another plate and the radioactivity was measured.
(2) The compounds in the Examples below were tested for PDE inhibition using the Method described above.

Bovine PDE10A (bPDE10A) = Bovine PDE10A (bPDE10A) (Bos taurus, UniProt A0A3Q1MHJ4); assay: Measurement of PDE10 inhibitory activity (PDE assay, radiolabeled nucleotide method), bovine enzyme; assay type: biochemical; conditions: PDE10A of bovine (corpus striatum); substrate 3H-cAMP, final 7 nM; room temperature 90 min
Bovine PDE10A (bPDE10A), sequence (A0A3Q1MHJ4 1-1068): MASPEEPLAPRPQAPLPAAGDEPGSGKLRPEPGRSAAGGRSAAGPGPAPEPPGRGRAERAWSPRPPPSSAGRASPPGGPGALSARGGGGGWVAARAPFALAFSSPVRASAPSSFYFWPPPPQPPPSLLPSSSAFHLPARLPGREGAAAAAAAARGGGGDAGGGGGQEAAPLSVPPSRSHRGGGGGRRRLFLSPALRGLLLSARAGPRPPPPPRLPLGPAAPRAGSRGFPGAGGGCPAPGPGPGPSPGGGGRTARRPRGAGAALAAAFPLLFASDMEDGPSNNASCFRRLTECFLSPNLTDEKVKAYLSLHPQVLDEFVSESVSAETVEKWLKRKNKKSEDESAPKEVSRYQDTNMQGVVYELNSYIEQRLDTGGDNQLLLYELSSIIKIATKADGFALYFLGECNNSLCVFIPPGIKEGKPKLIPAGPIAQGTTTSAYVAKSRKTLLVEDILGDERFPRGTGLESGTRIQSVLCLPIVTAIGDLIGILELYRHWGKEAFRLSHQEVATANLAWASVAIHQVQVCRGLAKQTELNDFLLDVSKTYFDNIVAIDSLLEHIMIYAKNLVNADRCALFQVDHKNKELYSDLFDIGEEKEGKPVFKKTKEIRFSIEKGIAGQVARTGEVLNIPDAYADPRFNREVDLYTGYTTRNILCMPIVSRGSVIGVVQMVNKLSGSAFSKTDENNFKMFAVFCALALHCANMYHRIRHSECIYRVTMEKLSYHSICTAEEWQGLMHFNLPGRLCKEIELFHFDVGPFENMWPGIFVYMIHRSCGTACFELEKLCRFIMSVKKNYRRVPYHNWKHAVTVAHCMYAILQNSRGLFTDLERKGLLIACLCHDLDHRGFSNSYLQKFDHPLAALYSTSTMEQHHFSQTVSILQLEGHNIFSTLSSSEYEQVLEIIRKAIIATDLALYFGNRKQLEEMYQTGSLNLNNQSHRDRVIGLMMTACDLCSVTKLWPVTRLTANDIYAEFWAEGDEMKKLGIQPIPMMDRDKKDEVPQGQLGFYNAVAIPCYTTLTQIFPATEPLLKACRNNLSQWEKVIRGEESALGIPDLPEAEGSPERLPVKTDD
Description: as §1, §2, §3
(Method) The test compounds were dissolved in dimethyl sulfoxide (DMSO). 2 μL of the compound solution was added to 96 well plate, and the reaction mixture (20 μL of PDE enzyme solution in 50 mM Tris-HCl, pH 8.0, 40 μL of the assay buffer (50 mM Tris-HCl, pH 8.0, 2 mM MgCl2, 0.07% 2-mercaptoethanol, and 0.825 mg/mL bovine serum albumin), and 20 μL of 1 mg/mL snake venom in 50 mM Tris-HCl, pH8.0) was added to the 96 well plate. […] 50 μL of the eluate together with wash eluate with additional 100 μL methanol was collected in another plate and the radioactivity was measured. […]

Structure (SMILES)	IC50 (Human PDE10A (hPDE10A)) [nM]	IC50 (Bovine PDE10A (bPDE10A)) [nM]
Cc1nc(C)c(C2CC2)nc1-c1cc2nc(N3CCCC3)cc(NC3CCOCC3)n2n1 [Example 1.190, 2-(6-cyclopropyl-3,5-dimethylpyrazin-2-yl)-5-pyrrolidin-1-yl-N-(tetrahydro-2H-pyran-4-yl)pyrazolo[1,5-a]pyrimidin-7-amine]	0.69	
CCCc1cnc(C)c(-c2cc3nc(N4CCCC4)cc(N(C)C4CCOCC4)n3n2)n1 [Example 1.181, N-methyl-2-(3-methyl-6-propylpyrazin-2-yl)-5-pyrrolidin-1-yl-N-(tetrahydro-2H-pyran-4-yl)pyrazolo[1,5-a]pyrimidin-7-amine]	0.64	
Cc1nc(C)c(C2CC2)nc1-c1cc2nc(N3CCCC3)cc(NCC(C)(C)O)n2n1 [Example 1.189, 1-{[2-(6-cyclopropyl-3,5-dimethylpyrazin-2-yl)-5-pyrrolidin-1-ylpyrazolo[1,5-a]pyrimidin-7-yl]amino}-2-methylpropan-2-ol]	0.18	
COCCN(CCOC)c1cc(N2CCCC2)nc2cc(-c3nc4cc(C)ccc4nc3C)nn12 [Example 1.050, 2-(3,7-dimethylquinoxalin-2-yl)-N,N-bis(2-methoxyethyl)-5-pyrrolidin-1-ylpyrazolo[1,5-a]pyrimidin-7-amine]		0.019
Cc1nc2c(nc1-c1cc3nc(N4CCCC4)cc(NC4CCOCC4)n3n1)CCCO2 [Example 1.197, 2-(3-methyl-7,8-dihydro-6H-pyrano[2,3-b]pyrazin-2-yl)-5-pyrrolidin-1-yl-N-(tetrahydro-2H-pyran-4-yl)pyrazolo[1,5-a]pyrimidin-7-amine]	2.5	
CO[C@H]1CC[C@H](Nc2cc(N3CCCC3)nc3cc(-c4nc5c(nc4C)OCCC5)nn23)CC1 [Example 1.199, N-(trans-4-methoxycyclohexyl)-2-(3-methyl-7,8-dihydro-6H-pyrano[2,3-b]pyrazin-2-yl)-5-pyrrolidin-1-ylpyrazolo[1,5-a]pyrimidin-7-amine]	0.89	
Cc1nc2ccc(F)cc2nc1-c1cc2nc(N3CC[C@H](F)C3)cc(N[C@H]3CC[C@@](C)(O)CC3)n2n1 [Example 1.175, cis-4-({2-(7-fluoro-3-methylquinoxalin-2-yl)-5-[(3R)-3-fluoropyrrolidin-1-yl]pyrazolo[1,5-a]pyrimidin-7-yl}amino)-1-methylcyclohexanol]	0.12	
Cc1nc2cnccc2nc1-c1cc2nc(N3CCCC3)cc(NC3CCOCC3)n2n1 [Example 5.002, 2-(3-methylpyrido[3,4-b]pyrazin-2-yl)-5-pyrrolidin-1-yl-N-(tetrahydro-2H-pyran-4-yl)pyrazolo[1,5-a]pyrimidin-7-amine]	0.28	
Cc1cn2nccc2nc1-c1cc2nc(N3CCCC3)cc(NCC(C)(C)O)n2n1 [Example 1.184, 2-methyl-1-[(6′-methyl-5-pyrrolidin-1-yl-2,5′-bipyrazolo[1,5-a]pyrimidin-7-yl)amino]propan-2-ol]	2.5	
Cc1nc2c(nc1-c1cc3nc(N4CCCC4)cc(NCC(C)(C)O)n3n1)CCCO2 [Example 1.198, 2-methyl-1-{[2-(3-methyl-7,8-dihydro-6H-pyrano[2,3-b]pyrazin-2-yl)-5-pyrrolidin-1-ylpyrazolo[1,5-a]pyrimidin-7-yl]amino}propan-2-ol]	0.82	
Cc1nc2c(nc1-c1cc3nc(N4CCCC4)cc(N[C@H]4CC[C@](C)(O)CC4)n3n1)CCCO2 [Example 1.173, trans-1-methyl-4-{[2-(3-methyl-7,8-dihydro-6H-pyrano[2,3-b]pyrazin-2-yl)-5-pyrrolidin-1-ylpyrazolo[1,5-a]pyrimidin-7-yl]amino}cyclohexanol]	0.27	
Cc1nc2ccncc2nc1-c1cc2nc(N3CCCC3)cc(NC3CCOCC3)n2n1 [Example 5.001, 2-(2-methylpyrido[3,4-b]pyrazin-3-yl)-5-pyrrodin-1-yl-N-(tetrahydro-2H-pyran-4-yl)pyrazolo[1,5-a]pyrimidin-7-amine]	0.15	
Cc1nc(C)c(-c2cc3nc(N4CCCC4)cc(NCC(C)(C)O)n3n2)nc1CC(C)C [Example 1.187, 1-{[2-(6-isobutyl-3,5-dimethylpyrazin-2-yl)-5-pyrrolidin-1-ylpyrazolo[1,5-a]pyrimidin-7-yl]amino}-2-methylpropan-2-ol]	0.6	
